Data set [1] relates to Mus musculus. Put plainly: Toxicity in Mus musculus (mouse) transplanted with mouse EAC cells assessed as effect on monocytes level at 75 mg/kg, ip measured on day 13 post tumor implantation (reference value: 1.4 +/- 0.24%). The class given is organism-based, Ehrlich. Also on record: dose 75 mg/kg, route intraperitoneal. As to conditions: in vivo.
The subject of data set [2] is Mus musculus. Put plainly: Toxicity in Mus musculus (mouse) transplanted with mouse EAC cells assessed as effect on neutrophils level at 75 mg/kg, ip measured on day 13 post tumor implantation (reference value: 60.4 +/- 1.5%). The class given is organism-based, Ehrlich. As to conditions: in vivo. Also on record: dose 75 mg/kg, route intraperitoneal.
Data set [3] relates to Mus musculus. Put plainly: Toxicity in Mus musculus (mouse) transplanted with mouse EAC cells assessed as effect on lymphocytes level at 75 mg/kg, ip measured on day 13 post tumor implantation (reference value: 35.8 +/- 1.15%). The class given is organism-based, Ehrlich. Also on record: dose 75 mg/kg, route intraperitoneal. As to conditions: in vivo.
Data set [4] concerns Mus musculus. Put plainly: Toxicity in Mus musculus (mouse) transplanted with mouse EAC cells assessed as effect on WBC level measured per 10^3 cells at 75 mg/kg, ip on day 13 post tumor implantation (reference value: 19.49 +/- 0.26 mm3). Format: organism-based, Ehrlich. The arrangement: dose 75 mg/kg, route intraperitoneal. As to conditions: in vivo.
The test system of data set [5] is Mus musculus. Put plainly: Toxicity in Mus musculus (mouse) transplanted with mouse EAC cells assessed as effect on RBC level at 75 mg/kg, ip measured on day 13 post tumor implantation (reference value: 3.95 +/- 0.32 million/mm3). Format: organism-based, Ehrlich. Also on record: dose 75 mg/kg, route intraperitoneal. The note with it: in vivo.
The subject of data set [6] is Mus musculus. Put plainly: Toxicity in Mus musculus (mouse) transplanted with mouse EAC cells assessed as increase in hemoglobin level at 75 mg/kg, ip measured on day 13 post tumor implantation (reference value: 7.5 +/- 0.01 g%). Format: organism-based, Ehrlich. The note with it: in vivo. Also on record: dose 75 mg/kg, route intraperitoneal.
A short description of data set [7]: Antitumor activity against Mus musculus (mouse) EAC cells transplanted in mouse assessed as increase in life span at 75 mg/kg, ip relative to vehicle-treated control. As to conditions: route intraperitoneal. Format: functional, Ehrlich.
Data set [8] in a line: Antitumor activity against Mus musculus (mouse) EAC cells transplanted in mouse assessed as decrease in body weight at 75 mg/kg, ip measured up to 11 days relative to vehicle-treated control. Format: functional, Ehrlich. Also on record: scale not given: the % may be the effect or the level left. As to conditions: route intraperitoneal.
Data set [9] deals with Mus musculus. Put plainly: Toxicity in Mus musculus (mouse) transplanted with mouse EAC cells assessed as increase in hemoglobin level at 20 mg/kg, ip measured on day 13 post tumor implantation (reference value: 7.5 +/- 0.01 g%). The arrangement: dose 20 mg/kg, route intraperitoneal. The note with it: in vivo. Format: organism-based, Ehrlich.
The test system of data set [10] is Mus musculus. Put plainly: Toxicity in Mus musculus (mouse) transplanted with mouse EAC cells assessed as effect on monocytes level at 20 mg/kg, ip measured on day 13 post tumor implantation (reference value: 1.4 +/- 0.24%). Format: organism-based, Ehrlich. The arrangement: dose 20 mg/kg, route intraperitoneal. As to conditions: in vivo.
Data set [11] has as its system Mus musculus. Put plainly: Toxicity in Mus musculus (mouse) transplanted with mouse EAC cells assessed as effect on neutrophils level at 20 mg/kg, ip measured on day 13 post tumor implantation (reference value: 60.4 +/- 1.5%). Format: organism-based, Ehrlich. The arrangement: dose 20 mg/kg, route intraperitoneal. The note with it: in vivo.
The test system of data set [12] is Mus musculus. Put plainly: Toxicity in Mus musculus (mouse) transplanted with mouse EAC cells assessed as effect on lymphocytes level at 20 mg/kg, ip measured on day 13 post tumor implantation (reference value: 35.8 +/- 1.15%). Format: organism-based, Ehrlich. The arrangement: dose 20 mg/kg, route intraperitoneal. As to conditions: in vivo.
For data set [13], the system named is Mus musculus. Put plainly: Toxicity in Mus musculus (mouse) transplanted with mouse EAC cells assessed as effect on WBC level measured per 10^3 cells at 20 mg/kg, ip on day 13 post tumor implantation (reference value: 19.49 +/- 0.26 mm3). Format: organism-based, Ehrlich. Also on record: dose 20 mg/kg, route intraperitoneal. As to conditions: in vivo.
A short description of data set [14]: Antitumor activity against Mus musculus (mouse) EAC cells transplanted in mouse assessed as increase in life span at 20 mg/kg, ip relative to vehicle-treated control. The class given is functional, Ehrlich. As to conditions: route intraperitoneal.
In data set [15] the test system is Mus musculus. Put plainly: Toxicity in Mus musculus (mouse) transplanted with mouse EAC cells assessed as effect on RBC level at 20 mg/kg, ip measured on day 13 post tumor implantation (reference value: 3.95 +/- 0.32 million/mm3). Format: organism-based, Ehrlich. As to conditions: in vivo. Also on record: dose 20 mg/kg, route intraperitoneal.

For `Cc1cc(O)c(-c2csc(NC(=O)CN3CCN(C)CC3)n2)c(=O)o1`, the Activity was 1.4% in the data set on Mus musculus [1]; 63.2% with Mus musculus [2]; 35.4% in the data set with Mus musculus [3]; 19.6 10^3 cells/mm3 in the data set on Mus musculus [4]; 5 million/mm3 with Mus musculus [5]; 10.64 g% in the data set on Mus musculus [6]. In addition, the Activity in data set [7] is on record as -1.04%; in data set [8], -1.007%.
As to `Cc1cc(O)c(-c2csc(N3C(=O)CSC3c3ccc(O)cc3)n2)c(=O)o1` (stereo unspecified), the Activity with Mus musculus [1] was 4.8%; in the data set with Mus musculus [2], 34%; in the data set with Mus musculus [3] it was 61%; with Mus musculus [4], 16.6 10^3 cells/mm3; with Mus musculus [5], 5.63 million/mm3; in the data set with Mus musculus [6], 13.08 g%. The Activity in data set [7] is 34.37%; in [8], 61.78%.
`COc1ccccc1N1CCN(CC(=O)Nc2nc(-c3c(O)cc(C)oc3=O)cs2)CC1`: the Activity was 4.8% in the data set with Mus musculus [1]; 25% with Mus musculus [2]; 70% in the data set on Mus musculus [3]; 15.7 10^3 cells/mm3 in the data set with Mus musculus [4]; 4.12 million/mm3 in the data set on Mus musculus [5]; 12.52 g% in the data set with Mus musculus [6]. Also, the Activity in [7] amounted to 27.08%; in data set [8] it was 58.11%.
In the case of `Cc1cc(O)c(-c2csc(N3C(=O)CSC3c3cccc([N+](=O)[O-])c3)n2)c(=O)o1` (stereo unspecified), the Activity in the data set with Mus musculus [1] was 4%; in the data set on Mus musculus [2], 63.2%; in the data set on Mus musculus [3], 32%; in the data set with Mus musculus [4], 33.9 10^3 cells/mm3; in the data set with Mus musculus [5] it was 19.07 million/mm3; in the data set on Mus musculus [6] it was 11.35 g%. Further, the Activity in data set [7] is listed as -23.95%; in [8], 33.5%.
As to `COc1cc(C2SCC(=O)N2c2nc(-c3c(O)cc(C)oc3=O)cs2)cc(OC)c1OC` (stereo unspecified), the Activity with Mus musculus [1] is 2%; with Mus musculus [2], 58.2%; with Mus musculus [3], 39.4%; with Mus musculus [4], 19.2 10^3 cells/mm3; in the data set on Mus musculus [5], 17.78 million/mm3; with Mus musculus [6], 10.48 g%. For the same molecule, the values for the Activity in data set [7] and in data set [8] were -1.04% and -1.047%, respectively.
Take `Cc1cc(O)c(-c2csc(NC(=O)CN3CCN(c4ccc(F)cc4)CC3)n2)c(=O)o1`: the Activity with Mus musculus [1] is 3%; with Mus musculus [2], 66%; in the data set on Mus musculus [3] it was 31%; in the data set on Mus musculus [4], 17.6 10^3 cells/mm3; in the data set with Mus musculus [5], 17.29 million/mm3; with Mus musculus [6], 11.96 g%. For the same molecule, the Activity in data set [7] is listed as -39.58%; in data set [8] it was 48.32%.
With `Cc1cc(O)c(-c2csc(NC(=O)CN3CCN(C(=O)c4ccco4)CC3)n2)c(=O)o1`, the Activity is 4.6% with Mus musculus [1]; 34% in the data set with Mus musculus [2]; 62% with Mus musculus [3]; 48.6 10^3 cells/mm3 in the data set with Mus musculus [4]; 6.28 million/mm3 with Mus musculus [5]; 13.21 g% with Mus musculus [6]. In addition, the Activity was -12.5% in data set [7] and 46.59% in data set [8].
On to `Cc1cc(O)c(-c2csc(N3C(=O)CSC3c3ccc(Cl)cc3)n2)c(=O)o1` (stereo unspecified), for which the Activity is 3% in the data set on Mus musculus [1]; 52.2% in the data set on Mus musculus [2]; 44% in the data set on Mus musculus [3]; 18.2 10^3 cells/mm3 in the data set with Mus musculus [4]; 2.76 million/mm3 in the data set on Mus musculus [5]; 8.54 g% in the data set with Mus musculus [6]. For the same molecule, the Activity in data set [7] amounted to 20.83%; in data set [8] it was 49.73%.
For the molecule `O=c1[nH]cc(F)c(=O)[nH]1` [FLUOROURACIL], the Activity in the data set with Mus musculus [9] is 13.99 g%; in the data set on Mus musculus [10], 1.2%; with Mus musculus [11], 27.8%; in the data set on Mus musculus [12], 71%; in the data set with Mus musculus [13] it was 15.6 mm3; in data set [14], 57.29%. The Activity with Mus musculus [15] came to 4.67 million/mm3.
